24 molecules from patent publication US20230295152A1 (SENDA BIOSCIENCES, INC., priority 2019, published 2023) can be followed below.

Broadly, the IC50 is the midpoint of a concentration-inhibition curve.

Some results are limits rather than exact numbers.

The test has as its target T1, AHR (Homo sapiens, UniProt P35869).
T1 construct: other cell line with a DRE-luciferase reporter stably transfected; endogenous in cells; host or cells: HepG2 AhR-Lucia reporter cells
T1 sequence (P35869 11-848): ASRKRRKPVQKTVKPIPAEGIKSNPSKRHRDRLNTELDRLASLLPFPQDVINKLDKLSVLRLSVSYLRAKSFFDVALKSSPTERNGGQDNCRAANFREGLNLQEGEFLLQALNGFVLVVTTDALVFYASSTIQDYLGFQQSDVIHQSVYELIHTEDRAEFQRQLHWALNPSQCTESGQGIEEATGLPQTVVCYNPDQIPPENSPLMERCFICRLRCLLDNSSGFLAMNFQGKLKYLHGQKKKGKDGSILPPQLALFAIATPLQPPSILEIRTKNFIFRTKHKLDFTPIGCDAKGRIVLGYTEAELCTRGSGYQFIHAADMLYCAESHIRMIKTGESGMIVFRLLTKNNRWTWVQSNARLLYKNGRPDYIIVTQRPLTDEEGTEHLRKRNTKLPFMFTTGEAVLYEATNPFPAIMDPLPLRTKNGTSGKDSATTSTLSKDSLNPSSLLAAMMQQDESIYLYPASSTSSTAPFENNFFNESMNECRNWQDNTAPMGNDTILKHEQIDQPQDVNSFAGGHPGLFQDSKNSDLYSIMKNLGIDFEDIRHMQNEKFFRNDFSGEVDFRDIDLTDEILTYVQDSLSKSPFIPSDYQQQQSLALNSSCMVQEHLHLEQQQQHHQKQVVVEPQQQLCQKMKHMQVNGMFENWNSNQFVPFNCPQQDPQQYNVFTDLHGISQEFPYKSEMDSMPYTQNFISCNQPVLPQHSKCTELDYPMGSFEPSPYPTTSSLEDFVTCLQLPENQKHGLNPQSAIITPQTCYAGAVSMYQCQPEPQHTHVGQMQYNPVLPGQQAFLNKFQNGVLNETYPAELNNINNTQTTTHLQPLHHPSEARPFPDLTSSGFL
Briefly: DRE-Luciferase Reporter Assay, HepG2 AhR-Lucia reporter cells. Format: cell-based. The note with it: with AHR activating ligand at EC50, read-out: HepG2-Luc IC50. The source says: AHR binds to Dioxin Responsive Elements (DRE) upstream of genes that it activates. One measure of AHR activity is activation of a reporter gene, such as luciferase, downstream of one or multiple DRE elements. Luciferase activity will reflect activation and inhibition of AHR in the cells expressing his reporter. 20000 Human HepG2 liver carcinoma—AhR-Lucia reporter cells or Human HT29 colon adenocarcinoma—AhR reporter cells or other cell line with a DRE-luciferase reporter stably transfected were plated in Eagle's Minimal Essential Medium, 10% heat-inactivated FBS, 1× non-essential amino acids Pen-Strep (10,000 U/mL) and Normocin (100 ug/mL) in plates (96-well, 384-well or other plates) and incubated overnight at 37° C. in a CO2 incubator and treated with and without AhR antagonists at a log dilution starting at 100 uM.
After 1 hr that cells were plated an AHR activating ligand, such as TCDD, kynurenine, ITE (2-(1H-indole-3-ylcarbonyl)-4-thiazolecarboxylic methyl ester), VAF347, BNF (beta-naphthoflavone), FICZ (6-formylindolo(3,2-b) carbazole) or other AHR ligands at their specific EC50 concentration, were added to the cells with or without AHR antagonist.
Cells were incubated for 24 or 48 hours or another time point and then, supernatant was analyzed for determination of luciferase activity as a read-out of the AHR activation or inhibition. Luciferase was measured with the commercial kit QUANTI-Luc™ assay solution kit from Invivogen following the manufacturer's instructions.
The level of luciferase with only agonist ligand added was the maximum signal while the luciferase with […] was the minimum signal. IC50 values were determined as the concentration which inhibits half of the luciferase activity.
A general note: Reporter assays use an easily measured gene product as a stand-in for the process of interest.

Take `C[C@@H](CO)n1cnc2c(-n3cncn3)nc(-c3ccc(C(F)(F)F)nc3)cc2c1=O` [Compound 164, (S)-3-(1-hydroxypropan-2-yl)-8-(1H-1,2,4-triazol-1-yl)-6-(6-(trifluoromethyl)pyridin-3-yl)pyrido[3,4-d]pyrimidin-4(3H)-one]: the IC50 fell in the range of 100 to 500 nM.
Turning to `C[C@@H](CO)n1cnc2c(-n3cccn3)nc(-c3ccc(C(F)(F)F)nc3)cc2c1=O` [Compound 165, (S)-3-(1-hydroxypropan-2-yl)-8-(1H-pyrazol-1-yl)-6-(6-(trifluoromethyl)pyridin-3-yl)pyrido[3,4-d]pyrimidin-4(3H)-one], the IC50 is less than 100 nM.
For the molecule `C[C@@H](CO)n1cnc2c(-n3cccn3)nc(-c3ccc(Cl)cc3)cc2c1=O` [Compound 166, (S)-6-(4-chlorophenyl)-3-(1-hydroxypropan-2-yl)-8-(1H-pyrazol-1-yl)pyrido[3,4-d]pyrimidin-4(3H)-one], the IC50 is less than 100 nM.
For `C[C@@H](CO)n1cnc2c(-n3cccn3)nc(-c3ccc(C(F)(F)F)cn3)cc2c1=O` [Compound 167, (S)-3-(1-hydroxypropan-2-yl)-8-(1H-pyrazol-1-yl)-6-(5-(trifluoromethyl)pyridin-2-yl)pyrido[3,4-d]pyrimidin-4(3H)-one], the IC50 lay in the range of 100 to 500 nM.
`C[C@@H](CO)n1cnc2c(-c3cnn(C)c3)nc(-c3cnc(C(F)(F)F)s3)cc2c1=O` [Compound 168, (S)-3-(1-hydroxypropan-2-yl)-8-(1-methyl-1H-pyrazol-4-yl)-6-(2-(trifluoromethyl)thiazol-5-yl)pyrido[3,4-d]pyrimidin-4(3H)-one]: the IC50 is less than 100 nM.
For `O=c1c2cc(-c3cnc(C(F)(F)F)s3)nc(-c3cccnc3)c2ncn1[C@H]1COC[C@@H]1O` [Compound 169, 3-((3S,4R)-4-hydroxytetrahydrofuran-3-yl)-8-(pyridin-3-yl)-6-(2-(trifluoromethyl)thiazol-5-yl)pyrido[3,4-d]pyrimidin-4(3H)-one], the IC50 is less than 100 nM.
Turning to `Cn1cc(-c2nc(-c3cnc(C(F)(F)F)s3)cc3c(=O)n(CC(C)(C)O)cnc23)cn1` [Compound 170, 3-(2-hydroxy-2-methylpropyl)-8-(1-methyl-1H-pyrazol-4-yl)-6-(2-(trifluoromethyl)thiazol-5-yl)pyrido[3,4-d]pyrimidin-4(3H)-one], the concentration for half-maximal inhibition (IC50) was less than 100 nM.
In the case of `Cn1cc(-c2nc(-c3cnc(C(F)(F)F)s3)cc3c(=O)n([C@H]4COC[C@@H]4O)cnc23)cn1` [Compound 171, 3-((3S,4R)-4-hydroxytetrahydrofuran-3-yl)-8-(1-methyl-1H-pyrazol-4-yl)-6-(2-(trifluoromethyl)thiazol-5-yl)pyrido[3,4-d]pyrimidin-4(3H)-one], the IC50 was less than 100 nM.
Under `Cn1cc(-c2nc(-c3cnc(C(F)(F)F)s3)cc3c(=O)n([C@@H]4COC[C@H]4O)cnc23)cn1` [Compound 172, 3-((3R,4S)-4-hydroxytetrahydrofuran-3-yl)-8-(1-methyl-1H-pyrazol-4-yl)-6-(2-(trifluoromethyl)thiazol-5-yl)pyrido[3,4-d]pyrimidin-4(3H)-one] stands less than 100 nM; under `O=c1c2cc(-c3cnc(C(F)(F)F)s3)nc(-c3cccnc3)c2ncn1[C@@H]1COC[C@H]1O` [Compound 173, 3-((3R,4S)-4-hydroxytetrahydrofuran-3-yl)-8-(pyridin-3-yl)-6-(2-(trifluoromethyl)thiazol-5-yl)pyrido[3,4-d]pyrimidin-4(3H)-one], 100 to 500 nM.
`CCN(CC)c1nc(-c2ccc(C(F)(F)F)nc2)cc2c(=O)n([C@@H](C)CO)cnc12` [Compound 174, (S)-8-(diethylamino)-3-(1-hydroxypropan-2-yl)-6-(6-(trifluoromethyl)pyridin-3-yl)pyrido[3,4-d]pyrimidin-4(3H)-one]: the IC50 was less than 100 nM.
As for `C[C@@H](CO)n1cnc2c(N3CCCCC3)nc(-c3ccc(C(F)(F)F)nc3)cc2c1=O` [Compound 175, (S)-3-(1-hydroxypropan-2-yl)-8-(piperidin-1-yl)-6-(6-(trifluoromethyl)pyridin-3-yl)pyrido[3,4-d]pyrimidin-4(3H)-one], the IC50 was less than 100 nM.
Turning to `C[C@@H](CO)n1cnc2c(N3CCCC3)nc(-c3ccc(C(F)(F)F)nc3)cc2c1=O` [Compound 176, (S)-3-(1-hydroxypropan-2-yl)-8-(pyrrolidin-1-yl)-6-(6-(trifluoromethyl)pyridin-3-yl)pyrido[3,4-d]pyrimidin-4(3H)-one], the IC50 is less than 100 nM.
As to `C[C@@H](CO)n1cnc2c(N3CCOCC3)nc(-c3ccc(C(F)(F)F)nc3)cc2c1=O` [Compound 178, (S)-3-(1-hydroxypropan-2-yl)-8-morpholino-6-(6-(trifluoromethyl)pyridin-3-yl)pyrido[3,4-d]pyrimidin-4(3H)-one], the IC50 is less than 100 nM.
On to `CC(C)(O)Cn1cnc2c(N3CCCCC3)nc(-c3ccc(C(F)(F)F)nc3)cc2c1=O` [Compound 179, 3-(2-hydroxy-2-methylpropyl)-8-(piperidin-1-yl)-6-(6-(trifluoromethyl)pyridin-3-yl)pyrido[3,4-d]pyrimidin-4(3H)-one], for which the IC50 is less than 100 nM.
In the case of `C[C@@H](CO)n1cnc2c(-c3ccccn3)nc(-c3ccc(C(F)(F)F)nc3)cc2c1=O` [Compound 180, (S)-3-(1-hydroxypropan-2-yl)-8-(pyridin-2-yl)-6-(6-(trifluoromethyl)pyridin-3-yl)pyrido[3,4-d]pyrimidin-4(3H)-one], the IC50 fell in the range of 100 to 500 nM.
Regarding `C[C@@H](CO)n1cnc2c(-c3cccnc3)nc(C3CCCCC3)cc2c1=O` [Compound 181, (S)-6-cyclohexyl-3-(1-hydroxypropan-2-yl)-8-(pyridin-3-yl)pyrido[3,4-d]pyrimidin-4(3H)-one], the IC50 was more than 500 nM.
Turning to `C[C@@H](CO)n1cnc2c(-c3cccnc3)nc(-c3ccccn3)cc2c1=O` [Compound 182, (S)-3-(1-hydroxypropan-2-yl)-6-(pyridin-2-yl)-8-(pyridin-3-yl)pyrido[3,4-d]pyrimidin-4(3H)-one], the IC50 fell in the range of 100 to 500 nM.
Take `C[C@@H](CO)n1cnc2c(-c3cccnc3)nc(-c3cnnn3C)cc2c1=O` [Compound 184, (S)-3-(1-hydroxypropan-2-yl)-6-(1-methyl-1H-1,2,3-triazol-5-yl)-8-(pyridin-3-yl)pyrido[3,4-d]pyrimidin-4(3H)-one]: the IC50 was more than 500 nM.
Under `Cc1ccc(-c2cc3c(=O)n([C@@H](C)CO)cnc3c(-c3cccnc3)n2)nc1` [Compound 186, (S)-3-(1-hydroxypropan-2-yl)-6-(5-methylpyridin-2-yl)-8-(pyridin-3-yl)pyrido[3,4-d]pyrimidin-4(3H)-one] stands less than 100 nM; under `Cc1cnc(-c2cc3c(=O)n([C@@H](C)CO)cnc3c(-c3cccnc3)n2)nc1` [Compound 187, (S)-3-(1-hydroxypropan-2-yl)-6-(5-methylpyrimidin-2-yl)-8-(pyridin-3-yl)pyrido[3,4-d]pyrimidin-4(3H)-one], more than 500 nM; under `C[C@@H](CO)n1cnc2c(C3=CCCCC3)nc(-c3ccc(C(F)(F)F)cn3)cc2c1=O` [Compound 188, (S)-8-(cyclohex-1-en-1-yl)-3-(1-hydroxypropan-2-yl)-6-(5-(trifluoromethyl)pyridin-2-yl)pyrido[3,4-d]pyrimidin-4(3H)-one], 100 to 500 nM.
Consider `C[C@@H](CO)n1cnc2c(C3CCCCC3)nc(-c3ccc(C(F)(F)F)cn3)cc2c1=O` [Compound 189, (S)-8-cyclohexyl-3-(1-hydroxypropan-2-yl)-6-(5-(trifluoromethyl)pyridin-2-yl)pyrido[3,4-d]pyrimidin-4(3H)-one], for which the IC50 is more than 500 nM.
With `C[C@@H](CO)n1cnc2c(-c3cccnc3)nc(C(=O)N(C)C)cc2c1=O` [Compound 190, (S)-3-(1-hydroxypropan-2-yl)-N,N-dimethyl-4-oxo-8-(pyridin-3-yl)-3,4-dihydropyrido[3,4-d]pyrimidine-6-carboxamide], the IC50 was more than 500 nM.
